ChEMBL document CHEMBL1201862, “PubChem BioAssay data set” (2004)
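96-well plates; 48 h exposure; 5 concentrations. Endpoints by linear interpolation between flanking doses. Not reached: highest tested concentration assigned. GI50: concentration for 50% inhibition of growth.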 The source made the active and inactive calls. No stated cut-off is given here; in the data, active = GI50 up to about 1.1 µM and inactive = higher.

Legend:
Test in all cases: inhibition of tumour cell growth, NCI panel, 48 h
SK-MEL-5 = test system: SK-MEL-5
KM12 = test system: KM12
OVCAR-5 = test system: OVCAR-5
CCRF-CEM = test system: CCRF-CEM
HOP-92 = test system: HOP-92
NCI-H23 = test system: NCI-H23
SNB-75 = test system: SNB-75
UACC-62 = test system: UACC-62
SW-620 = test system: SW-620
M14 = test system: M14
EKVX = test system: EKVX
OVCAR-8 = test system: OVCAR-8
U-251 = test system: U-251
SF-295 = test system: SF-295
A498 = test system: A498
CAKI-1 = test system: CAKI-1
KM-20L2 = test system: KM-20L2
ACHN = test system: ACHN
DLD-1 = test system: DLD-1
RPMI-8226 = test system: RPMI-8226
DMS-273 = test system: DMS-273
IGROV-1 = test system: IGROV-1
NCI-H460 = test system: NCI-H460
SF-268 = test system: SF-268
NCI-H522 = test system: NCI-H522
TK-10 = test system: TK-10
SR = test system: SR
A549 = test system: A549
HT-29 = test system: HT-29
SF-539 = test system: SF-539
NCI-H226 = test system: NCI-H226
SK-MEL-2 = test system: SK-MEL-2
DMS-114 = test system: DMS-114
HCT-116 = test system: HCT-116
SNB-78 = test system: SNB-78
SK-MEL-28 = test system: SK-MEL-28
HCT-15 = test system: HCT-15
LXFL 529 = test system: LXFL 529
M19-MEL = test system: M19-MEL
UO-31 = test system: UO-31
K562 = test system: K562
SNB-19 = test system: SNB-19
HOP-62 = test system: HOP-62
COLO 205 = test system: COLO 205
HCC 2998 = test system: HCC 2998
SK-OV-3 = test system: SK-OV-3
SN12C = test system: SN12C
HL-60 = test system: HL-60
OVCAR-3 = test system: OVCAR-3
MOLT-4 = test system: MOLT-4
OVCAR-4 = test system: OVCAR-4
XF498 = test system: XF498
UACC-257 = test system: UACC-257
Malme-3M = test system: Malme-3M
RXF 393 = test system: RXF 393
786-0 = test system: 786-0
LOX IMVI = test system: LOX IMVI

CO/C(=N\N=Cc1ccccc1)c1ccncc1
GI50 (SK-MEL-5): > 100 µM (inactive)
GI50 (KM12): > 100 µM (inactive)
GI50 (OVCAR-5): > 100 µM (inactive)
GI50 (CCRF-CEM): > 100 µM (inactive)
GI50 (HOP-92): > 100 µM (inactive)
GI50 (NCI-H23): > 100 µM (inactive)
GI50 (SNB-75): 31.3 µM (inactive)
GI50 (UACC-62): > 100 µM (inactive)
GI50 (SW-620): > 100 µM (inactive)
GI50 (M14): > 100 µM (inactive)
GI50 (EKVX): > 100 µM (inactive)
GI50 (OVCAR-8): > 100 µM (inactive)
GI50 (U-251): > 100 µM (inactive)
GI50 (SF-295): > 100 µM (inactive)
GI50 (A498): > 100 µM (inactive)
GI50 (CAKI-1): > 100 µM (inactive)
GI50 (KM-20L2): > 100 µM (inactive)
GI50 (ACHN): > 100 µM (inactive)
GI50 (DLD-1): > 100 µM (inactive)
GI50 (RPMI-8226): > 100 µM (inactive)
GI50 (DMS-273): > 100 µM (inactive)
GI50 (IGROV-1): > 100 µM (inactive)
GI50 (NCI-H460): > 100 µM (inactive)
GI50 (SF-268): > 100 µM (inactive)
GI50 (NCI-H522): 68.9 µM (inactive)
GI50 (TK-10): > 100 µM (inactive)
GI50 (SR): > 100 µM (inactive)
GI50 (A549): > 100 µM (inactive)
GI50 (HT-29): > 100 µM (inactive)
GI50 (SF-539): > 100 µM (inactive)
GI50 (NCI-H226): 12.6 µM (inactive)
GI50 (SK-MEL-2): > 100 µM (inactive)
GI50 (DMS-114): > 100 µM (inactive)
GI50 (HCT-116): > 100 µM (inactive)
GI50 (SNB-78): > 100 µM (inactive)
GI50 (SK-MEL-28): > 100 µM (inactive)
GI50 (HCT-15): > 100 µM
GI50 (LXFL 529): > 100 µM (inactive)
GI50 (M19-MEL): > 100 µM (inactive)
GI50 (UO-31): 47.2 µM (inactive)
GI50 (K562): > 100 µM (inactive)
GI50 (SNB-19): > 100 µM (inactive)
GI50 (HOP-62): > 100 µM (inactive)
GI50 (COLO 205): > 100 µM (inactive)
GI50 (HCC 2998): > 100 µM (inactive)
GI50 (SK-OV-3): > 100 µM (inactive)
GI50 (SN12C): > 100 µM (inactive)
GI50 (HL-60): > 100 µM (inactive)
GI50 (OVCAR-3): > 100 µM (inactive)
GI50 (MOLT-4): > 100 µM (inactive)
GI50 (OVCAR-4): > 100 µM (inactive)
GI50 (XF498): 47.5 µM (inactive)
GI50 (UACC-257): > 100 µM (inactive)
GI50 (Malme-3M): > 100 µM (inactive)

NCCCC(N/C=C1/N=C(c2ccccc2)OC1=O)C(=O)O (centres undefined)
GI50 (SK-MEL-5): > 100 µM (inactive)
GI50 (OVCAR-5): > 100 µM (inactive)
GI50 (CCRF-CEM): 37.8 µM (inactive)
GI50 (HOP-92): > 100 µM (inactive)
GI50 (NCI-H23): > 100 µM (inactive)
GI50 (SNB-75): > 100 µM (inactive)
GI50 (UACC-62): > 100 µM (inactive)
GI50 (SW-620): > 100 µM (inactive)
GI50 (M14): > 100 µM (inactive)
GI50 (EKVX): > 100 µM (inactive)
GI50 (OVCAR-8): > 100 µM (inactive)
GI50 (U-251): > 100 µM (inactive)
GI50 (SF-295): > 100 µM (inactive)
GI50 (A498): > 100 µM (inactive)
GI50 (RXF 393): > 100 µM (inactive)
GI50 (KM-20L2): > 100 µM (inactive)
GI50 (ACHN): > 100 µM (inactive)
GI50 (786-0): > 100 µM (inactive)
GI50 (DLD-1): 65.8 µM (inactive)
GI50 (RPMI-8226): 45.5 µM (inactive)
GI50 (DMS-273): > 100 µM (inactive)
GI50 (IGROV-1): > 100 µM (inactive)
GI50 (NCI-H460): > 100 µM (inactive)
GI50 (SF-268): > 100 µM (inactive)
GI50 (NCI-H522): 40.8 µM (inactive)
GI50 (TK-10): > 100 µM (inactive)
GI50 (SR): 87.3 µM (inactive)
GI50 (A549): > 100 µM (inactive)
GI50 (HT-29): > 100 µM (inactive)
GI50 (SF-539): > 100 µM (inactive)
GI50 (NCI-H226): > 100 µM (inactive)
GI50 (SK-MEL-2): > 100 µM (inactive)
GI50 (DMS-114): > 100 µM (inactive)
GI50 (HCT-116): 40.3 µM (inactive)
GI50 (SNB-78): > 100 µM (inactive)
GI50 (SK-MEL-28): > 100 µM (inactive)
GI50 (HCT-15): > 100 µM
GI50 (LXFL 529): 96.8 µM (inactive)
GI50 (M19-MEL): > 100 µM (inactive)
GI50 (UO-31): > 100 µM (inactive)
GI50 (K562): 34.4 µM (inactive)
GI50 (SNB-19): > 100 µM (inactive)
GI50 (HOP-62): > 100 µM (inactive)
GI50 (COLO 205): > 100 µM (inactive)
GI50 (HCC 2998): > 100 µM (inactive)
GI50 (SK-OV-3): > 100 µM (inactive)
GI50 (SN12C): > 100 µM (inactive)
GI50 (HL-60): 63.4 µM (inactive)
GI50 (OVCAR-3): > 100 µM (inactive)
GI50 (MOLT-4): > 100 µM (inactive)
GI50 (LOX IMVI): > 100 µM (inactive)
GI50 (OVCAR-4): > 100 µM (inactive)
GI50 (XF498): > 100 µM (inactive)
GI50 (UACC-257): > 100 µM (inactive)
GI50 (Malme-3M): > 100 µM (inactive)
